Experimental data from US7235252B2, “Method of preparing organic peroxyacids” (priority 2002, dated 2007).

What was measured:
[1] = Peracetic acid formation rate and stability with N-acyl donors in parent solution (double titration); format: physicochemical; details: equimolar N-acyl donor dispersed in parent solution
From the text: The other conditions (temperature, humidity, generator composition) being the same, equimolar amounts of the three N-acyl donors were dispersed in the parent solution to determine the formation rate of peracetic acid in the solution and the stability with time of such a concentration. The method adopted for quantitative determination of organic peroxyacid in the presence of a large excess of hydrogen peroxide (in this and in the following tests) was a sequential double-titration, the first of which is a permanganometric test designed to titre and eliminate any hydrogen peroxide in excess, and this was immediately followed by an iodometric titration to determine the concentration of the remaining organic peroxide. The results are shown below, both as activation rate (see FIG. 1), and stability of the peracetic acid concentration (see FIG. 2) are concerned.

[2] = Preliminary assessment of acetyl donating compounds; format: physicochemical
From the text: Search work was initially directed towards finding out the best N-acyl and/or O-acyl activator of all those available and disclosed in the prior art referred to above. The features sought for in this initial search were: • a rapidly acting acylating agent (i.e. provided with an electrophilic carbonyl carbon) suitable for causing a perhydrolysis reaction due to electron-withdrawing effect on the carbonyl carbon and for providing a sufficiently high concentration of its respective peracid within short times (20–30 minutes) for the specified objects; • a good conservation under standard storage conditions (at temperatures ranging from 20° and 40° C.). • an ability to yield after activation an activated solution in which the organic peroxyacid concentration is as stable as possible. […]

[3] = test system: bacterial spores (sporicidal activity); assay: Minimum effective concentration (CME) by sporicidal activity; format: cell-based; details: minimum peracetic acid concentration with sporicidal activity over contact time of 15 minutes
Procedure: In the search study carried out with an endoscope washing machine, the solution was used by operating 10 full daily cycles of high-level disinfection or, better, cold-chemical sterilization for a total of 120 cycles. The contact time set for the sterilization step was 30 minutes. As it will be noted, immediately after activation, the concentration increases at a fast-rate, overcomes the minimum effective concentration level (Minimum Effective Concentration Level ═CME) equal to 0.05% w/v just after 15–20 minutes and reaches a maximum value equal to 0.35% w/v after 24 hours. During the following days, concentration decreases slowly down to a minimum effective level below which the effectiveness set forth below is not provided any longer. This threshold level (CME) was fixed and defined by means of the minimum % concentration of peracetic acid at which a sporicidal activity is still detected over a contact time of 15 minutes.

CC(=O)ON1C(=O)CCC1=O [N-acetoxysuccinimide]
Stability of peracetic acid concentration with time (FIG. 2) [1]: poor stability with time | Stability under standard storage conditions [2]: poor stability

CC(=O)N1CCCCCC1=O [N-acetylcaprolactam]
Stability of peracetic acid concentration with time (FIG. 2) [1]: good stability

CC(=O)N1C(=O)CCC1=O [N-acetylsuccinimide]
Stability of peracetic acid concentration with time (FIG. 2) [1]: behavior similar to that of N-OSU | Stability under standard storage conditions [2]: poor stability

CC(=O)OO [peracetic acid]
Minimum Effective Concentration Level (CME) [3]: 0.05 % w/v
